Measurements as given in patent US11655235B2, “Pyrrolidine and piperidine compounds” (YUHAN CORPORATION, priority 2019, dated 2023).

Columns and labels:
Assay type in all cases: biochemical
recombinant human DPP7 = biological target: T1, recombinant human DPP7 (Homo sapiens, UniProt Q9UHL4); assay: DPP7 inhibition, fluorogenic substrate Lys-Pro-AMC; details: recombinant human DPP7
T1 construct: purchased R&D Systems
Method: The compounds according to the present technology were evaluated in terms of the inhibitory effect on the activity of dipeptidyl peptidases including FAP by using a substrate producing fluorescent substances upon enzymatic decomposition. The test was conducted at 25° C. to get a final reaction volume of 100 μL in a 96 black well plate. […] Briefly, the test compounds were dissolved in dimethyl sulfoxide (DMSO) at a concentration of 20 mM and then subjected to serial dilution, thereby creating an 8 point curve. As for the control group, a 6 point curve created by serial dilution of Talabostat in the same buffer solution was used. Fluorescence intensity was measured using a microplate reader (Flexstation3, Molecular Devices) under the wavelength condition exciting at 380 nm and reading the emission at 460 nm. The inhibitory effect of the test compounds was measured as a decrease (%) in the signal rate as compared to the control group without any inhibitor. Data was fixed to a logistic model with four variables and IC50 value was calculated using GraphPad Prism program. As for recombinant human DPP4 (R&D Systems), 25 mM tris (pH 8.0) buffer as a buffer solution and H-Gly-Pro-AMC (Bachem) as a substrate were used. As for recombinant human DPP7 (R&D Systems), 25 mM MES (pH 6.0) buffer as a buffer solution and Lys-Pro-AMC (Bachem) as a substrate were used. As for recombinant human DPP8 (PBS Bioscience), as a buffer solution, a 10 mM tris (pH 7.4) buffer comprising 10 mM of magnesium chloride and 0.05% of Tween 20, and Z-Ala-Pro-AMC (BPS Bioscience) as a substrate were used. As for recombinant human DPP9 (R&D Systems), a 25 mM tris (pH 8.0) buffer as a buffer solution and H-Gly-Pro-AMC (Bachem) as a substrate were used. As for recombinant human PREP (R&D System), as a buffer solution, a 25 mM tris (pH 7.5) buffer comprising 250 mM sodium chloride and 2.5 mM DTT (Dithiolthreitol), and Z-Gly-Pro-AMC (Bachem) as a substrate were used. The evaluation was made by using 10 ng of DPP4, PDD7, and PREP, 20 ng of DPP8, and 50 ng of DPP9 based on the final reaction. In the evaluation of DPP4, the test compounds were subjected to serial dilution in a buffer under the condition containing up to 0.1% of DMSO. In the evaluation of DPP7, DPP8, DPP9, and PREP, the test compounds were subjected to serial dilution in each buffer under the condition containing up to 0.5% of DMSO.

Recombinant human FAP = biological target: T2, Recombinant human FAP (Homo sapiens, UniProt Q12884); assay: FAP FRET assay, FGF21-sequence FRET peptide substrate; details: FRET peptide with human FGF21 sequence, 6 μM, 37° C.
T2 construct: purchased R&D systems
T2 sequence (Q12884 1-760): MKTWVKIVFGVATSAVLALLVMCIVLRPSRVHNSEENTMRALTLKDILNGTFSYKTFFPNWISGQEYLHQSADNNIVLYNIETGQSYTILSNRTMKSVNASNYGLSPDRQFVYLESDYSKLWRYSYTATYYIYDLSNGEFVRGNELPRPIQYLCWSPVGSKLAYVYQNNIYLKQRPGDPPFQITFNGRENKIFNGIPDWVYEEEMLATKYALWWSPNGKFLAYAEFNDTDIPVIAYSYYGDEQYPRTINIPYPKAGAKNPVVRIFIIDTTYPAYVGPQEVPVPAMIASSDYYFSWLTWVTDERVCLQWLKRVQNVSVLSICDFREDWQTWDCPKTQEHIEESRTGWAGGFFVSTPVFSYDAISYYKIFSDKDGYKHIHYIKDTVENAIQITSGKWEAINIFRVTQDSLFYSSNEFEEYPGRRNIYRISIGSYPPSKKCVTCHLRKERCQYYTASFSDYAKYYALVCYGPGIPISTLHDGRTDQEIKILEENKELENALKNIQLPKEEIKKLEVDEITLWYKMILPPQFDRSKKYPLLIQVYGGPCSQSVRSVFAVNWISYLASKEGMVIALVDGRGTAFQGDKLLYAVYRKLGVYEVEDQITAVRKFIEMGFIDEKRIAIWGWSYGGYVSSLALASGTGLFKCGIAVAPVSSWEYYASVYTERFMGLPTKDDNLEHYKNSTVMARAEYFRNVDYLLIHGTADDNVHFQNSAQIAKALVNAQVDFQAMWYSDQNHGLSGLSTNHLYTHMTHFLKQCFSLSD
Procedure, shortened: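 FRET peptide bearing human FGF21 sequence (6 μM final) cleaved by 10 ng recombinant human FAP at 37° C in HEPES pH 7.2 buffer with NaCl, BSA and EDTA, DMSO up to 0.1%. Signal-rate decrease versus uninhibited control fitted to a four-variable logistic model for IC50.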

DPP4 = DPP4 (Homo sapiens, UniProt P27487); assay: DPP4 inhibition, fluorogenic substrate H-Gly-Pro-AMC; design: purchased R&D Systems; details: recombinant human DPP4
DPP4, sequence (P27487 whole entry): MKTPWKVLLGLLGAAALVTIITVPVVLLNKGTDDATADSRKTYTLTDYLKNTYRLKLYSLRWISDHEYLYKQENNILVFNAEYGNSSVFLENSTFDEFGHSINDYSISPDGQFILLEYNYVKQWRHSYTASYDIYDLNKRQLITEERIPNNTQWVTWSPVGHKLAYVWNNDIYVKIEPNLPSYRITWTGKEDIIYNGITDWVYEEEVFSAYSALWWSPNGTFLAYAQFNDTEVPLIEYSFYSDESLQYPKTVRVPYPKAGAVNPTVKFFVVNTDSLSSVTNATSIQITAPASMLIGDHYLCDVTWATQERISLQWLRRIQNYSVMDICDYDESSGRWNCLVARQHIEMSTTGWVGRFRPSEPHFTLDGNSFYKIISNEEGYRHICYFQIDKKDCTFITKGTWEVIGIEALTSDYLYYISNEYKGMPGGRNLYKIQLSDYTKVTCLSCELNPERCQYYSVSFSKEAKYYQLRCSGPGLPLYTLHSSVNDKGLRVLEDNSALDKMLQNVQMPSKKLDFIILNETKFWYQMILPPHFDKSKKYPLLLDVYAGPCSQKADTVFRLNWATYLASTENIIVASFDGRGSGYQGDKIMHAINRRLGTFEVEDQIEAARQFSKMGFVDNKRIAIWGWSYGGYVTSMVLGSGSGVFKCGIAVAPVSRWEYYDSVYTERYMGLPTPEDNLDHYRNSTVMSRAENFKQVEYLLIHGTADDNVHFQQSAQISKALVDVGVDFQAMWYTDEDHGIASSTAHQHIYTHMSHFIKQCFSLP

SMILES | IC50 (recombinant human DPP7) [nM] | IC50 (Recombinant human FAP) [nM] | IC50 (DPP4) [nM]
N#C[C@@H]1C[C@H](F)CN1C(=O)CN1CC[C@@H](Nc2cnc3ncccc3c2)C1 [Example 171, (2S,4S)-4-fluoro-1-[2-[(3R)-3-(1,8-naphthyridin-3-ylamino)pyrrolidin-1-yl]acetyl]pyrrolidine-2-carbonitrile] | 2790 | 8.2 | 2190
N#C[C@@H]1C[C@H](F)CN1C(=O)CN1CC[C@@H](Nc2ccc(F)c3ncccc23)C1 [Example 175, (2S,4S)-4-fluoro-1-[2-[(3R)-3-[(8-fluoro-5-quinolyl)amino]pyrrolidin-1-yl]acetyl]pyrrolidine-2-carbonitrile] | 4240 | 3.5 | 1690
N#C[C@@H]1CCCN1C(=O)CN1CC[C@@H](Nc2cccc3ncc(F)cc23)C1 [Example 209, (2S)-1-[2-[(3R)-3-[(3-fluoro-5-quinolyl)amino]pyrrolidin-1-yl]acetyl]pyrrolidine-2-carbonitrile] | 7010 | 1.7 | 4430
N#C[C@@H]1C[C@H](F)CN1C(=O)CN1CC[C@H](Nc2ccc(C(=O)Nc3ccccc3)c3ncccc23)C1 [Example 283, N-phenyl-5-[[(3S)-1-[2-oxo-2-[(2S,4S)-2-cyano-4-fluoro-pyrrolidin-1-yl]ethyl]pyrrolidin-3-yl]amino]quinoline-8-carboxamide] | 74.3 | 1 | 1210
N#C[C@@H]1C[C@H](F)CN1C(=O)CN1CCC(Nc2ccnc3cccnc23)CC1 [Example 380, (2S,4S)-4-fluoro-1-[2-[4-(1,5-naphthyridin-4-ylamino)-1-piperidyl]acetyl]pyrrolidine-2-carbonitrile] | – | 77.1 | 8160
N#C[C@@H]1C[C@H](F)CN1C(=O)CN1CCC(Nc2ccc3nc(C(F)(F)F)ccc3c2)CC1 [Example 381, (2S,4S)-4-fluoro-1-[2-[4-[[2-(trifluoromethyl)-6-quinolyl]amino]-1-piperidyl]acetyl]pyrrolidine-2-carbonitrile] | – | 14.3 | 10600
COc1ccnc2ccc(NC3CCN(CC(=O)N4C[C@@H](F)C[C@H]4C#N)CC3)cc12 [Example 382, (2S,4S)-4-fluoro-1-[2-[4-[(4-methoxy-6-quinolyl)amino]-1-piperidyl]acetyl]pyrrolidine-2-carbonitrile] | – | 80 | 3150
N#C[C@@H]1C[C@H](F)CN1C(=O)CN1CCC(Nc2ccnc(Br)c2)CC1 [Example 383, (2S,4S)-1-[2-[4-[(2-bromo-4-pyridyl)amino]-1-piperidyl]acetyl]-4-fluoro-pyrrolidine-2-carbonitrile] | – | 39.3 | 2800
N#C[C@@H]1C[C@H](F)CN1C(=O)CN1CCC(Nc2cccc3ncc(C(=O)Nc4ccccc4)cc23)CC1 [Example 388, 5-[[1-[2-oxo-2-[(2S,4S)-2-cyano-4-fluoro-pyrrolidin-1-yl]ethyl]-4-piperidyl]amino]-N-phenyl-quinoline-3-carboxamide] | – | 70.2 | 6890
CN(Cc1ccccc1)C(=O)c1cnc2cccc(NC3CCN(CC(=O)N4C[C@@H](F)C[C@H]4C#N)CC3)c2c1 [Example 389, N-benzyl-N-methyl-5-[[1-[2-oxo-2-[(2S,4S)-2-cyano-4-fluoro-pyrrolidin-1-yl]ethyl]-4-piperidyl]amino]quinoline-3-carboxamide] | – | 67.5 | 3890
CN(C)C(=O)c1ccc(NC2CCN(CC(=O)N3C[C@@H](F)C[C@H]3C#N)CC2)c2cccnc12 [Example 391, N,N-dimethyl-5-[[1-[2-oxo-2-[(2S,4S)-2-cyano-4-fluoro-pyrrolidin-1-yl]ethyl]-4-piperidyl]amino]quinoline-8-carboxamide] | – | 27.5 | 3500
CN(C(=O)c1ccc(NC2CCN(CC(=O)N3C[C@@H](F)C[C@H]3C#N)CC2)c2cccnc12)c1ccccc1 [Example 392, N-methyl-5-[[1-[2-oxo-2-[(2S,4S)-2-cyano-4-fluoro-pyrrolidin-1-yl]ethyl]-4-piperidyl]amino]-N-phenyl-quinoline-8-carboxamide] | – | 50.6 | 2070
CN(Cc1ccccc1)C(=O)c1ccc(NC2CCN(CC(=O)N3C[C@@H](F)C[C@H]3C#N)CC2)c2cccnc12 [Example 393, N-benzyl-N-methyl-5-[[1-[2-oxo-2-[(2S,4S)-2-cyano-4-fluoro-pyrrolidin-1-yl]ethyl]-4-piperidyl]amino]quinoline-8-carboxamide] | – | 43.8 | 3310
CNC(=O)c1ccc(NC2CCN(CC(=O)N3CCC[C@H]3C#N)CC2)c2cccnc12 [Example 395, N-methyl-5-[[1-[2-oxo-2-[(2S)-2-cyanopyrrolidin-1-yl]ethyl]-4-piperidyl]amino]quinoline-8-carboxamide] | – | 18.6 | 6040
CN(Cc1ccccc1)C(=O)c1ccc(NC2CCN(CC(=O)N3CCC[C@H]3C#N)CC2)c2cccnc12 [Example 397, N-benzyl-N-methyl-5-[[1-[2-oxo-2-[(2S)-2-cyanopyrrolidin-1-yl]ethyl]-4-piperidyl]amino]quinoline-8-carboxamide] | – | 38.9 | 28500
CN(C(=O)c1ccc(NC2CCN(CC(=O)N3CCC[C@H]3C#N)CC2)c2cccnc12)c1ccccc1 [Example 398, N-methyl-5-[[1-[2-oxo-2-[(2S)-2-cyanopyrrolidin-1-yl]ethyl]-4-piperidyl]amino]-N-phenyl-quinoline-8-carboxamide] | – | 98.6 | 14000
CC(=O)Nc1ccc(NC2CCN(CC(=O)N3CCC[C@H]3C#N)CC2)c2cccnc12 [Example 408, N-[5-[[1-[2-oxo-2-[(2S)-2-cyanopyrrolidin-1-yl]ethyl]-4-piperidyl]amino]-8-quinolyl]acetamide] | – | 12.8 | 8190
N#C[C@@H]1CCCN1C(=O)CN1CCC(Oc2ccnc3cc(Cl)ccc23)CC1 [Example 428, (2S)-1-[2-[4-[(7-chloro-4-quinolyl)oxy]-1-piperidyl]acetyl]pyrrolidine-2-carbonitrile] | – | 17.3 | 32600
N#Cc1ccc2c(OC3CCN(CC(=O)N4CCC[C@H]4C#N)CC3)cccc2n1 [Example 430, 5-[[1-[2-oxo-2-[(2S)-2-cyanopyrrolidin-1-yl]ethyl]-4-piperidyl]oxy]quinoline-2-carbonitrile] | – | 24.5 | 29400
Cc1ccc2c(OC3CCN(CC(=O)N4C[C@@H](F)C[C@H]4C#N)CC3)ccnc2c1 [Example 432, (2S,4S)-4-fluoro-1-[2-[4-[(7-methyl-4-quinolyl)oxy]-1-piperidyl]acetyl]pyrrolidine-2-carbonitrile] | – | 19.8 | 6580
